Among the data in patent US20250163038A1, “CBL-B MODULATORS AND USES THEREOF” (Nimbus Clio, Inc., priority 2021, published 2025) are EC50 and IC50 values, retold here.

Assay [1] has as its system Jurkat (clone E6-1) cells with NFAT luciferase reporter. The assay can be described thus: Jurkat reporter assay (NFAT Luciferase). As to conditions: Homo sapiens; Jurkat NFAT luciferase reporter cells, anti-CD3 stimulation, 6 hr; read-out: Jurkat NFAT EC50. The assay is classed as cell-based.
Assay [2] has as its target Recombinant human Cbl-b (aa 36-427) (Homo sapiens, UniProt Q13191). The assay can be described thus: Cbl-b Biochemical Assay (TR-FRET). As to conditions: read-out: TR-FRET hCbl-b IC50. In general terms: TR-FRET usually uses a lanthanide donor and a delayed reading to cut background.
Assay [3] concerns the target T1, Recombinant human c-Cbl (aa 47-435) (Homo sapiens, UniProt P22681).
T1 sequence (P22681 47-435): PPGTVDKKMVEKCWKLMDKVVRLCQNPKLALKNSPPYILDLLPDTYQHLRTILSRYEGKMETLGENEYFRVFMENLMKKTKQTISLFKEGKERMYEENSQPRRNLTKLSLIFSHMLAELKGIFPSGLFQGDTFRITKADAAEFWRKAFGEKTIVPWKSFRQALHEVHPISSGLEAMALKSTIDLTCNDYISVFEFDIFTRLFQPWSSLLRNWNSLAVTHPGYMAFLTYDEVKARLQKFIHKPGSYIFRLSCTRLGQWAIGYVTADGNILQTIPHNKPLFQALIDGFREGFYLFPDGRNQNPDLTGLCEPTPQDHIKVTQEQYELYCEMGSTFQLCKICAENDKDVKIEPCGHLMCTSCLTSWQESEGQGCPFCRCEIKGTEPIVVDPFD
The assay can be described thus: c-Cbl Biochemical Assay (TR-FRET). The note with it: hc-Cbl Biochemical Assay (TR-FRET); read-out: TR-FRET hcCbl IC50.

Chain of Recombinant human Cbl-b (aa 36-427) (Q13191 36-427): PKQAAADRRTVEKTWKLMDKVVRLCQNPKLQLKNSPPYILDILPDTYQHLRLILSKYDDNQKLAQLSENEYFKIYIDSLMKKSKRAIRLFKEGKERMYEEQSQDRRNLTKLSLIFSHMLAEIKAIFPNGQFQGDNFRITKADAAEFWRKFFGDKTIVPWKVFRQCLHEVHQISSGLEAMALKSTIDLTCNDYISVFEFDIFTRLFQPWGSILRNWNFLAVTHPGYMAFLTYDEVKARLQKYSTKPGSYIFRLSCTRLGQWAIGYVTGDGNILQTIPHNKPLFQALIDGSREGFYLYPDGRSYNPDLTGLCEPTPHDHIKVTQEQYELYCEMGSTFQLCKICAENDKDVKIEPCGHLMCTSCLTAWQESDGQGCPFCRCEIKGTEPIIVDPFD

For the compound `Cn1cnnc1-c1cc(F)ccc1-c1cccc(-c2nc3cc(CNCC4(O)CCCC4)cc(C(F)(F)F)c3[nH]2)c1` [CJ-1, 1-((((2-(4′-Fluoro-2′-(4-methyl-4H-1,2,4-triazol-3-yl)-[1,1′-biphenyl]-3-yl)-7-(trifluoromethyl)-1H-benzo[d]imidazol-5-yl)methyl)amino)methyl)cyclopentan-1-ol], the EC50 (in general, the midpoint of the concentration-response curve) in assay [1] is less than 200 nM. Also, the IC50 in assay [2] and in assay [3] was less than 200 nM in each case.

On to `Cn1cnnc1-c1cc(F)ccc1-c1cccc(-c2nc3cc(CNCC4(O)CC(F)(F)C4)cc(C(F)(F)F)c3[nH]2)c1` [CK-2, 3,3-Difluoro-1-((((2-(4′-fluoro-2′-(4-methyl-4H-1,2,4-triazol-3-yl)-[1,1′-biphenyl]-3-yl)-7-(trifluoromethyl)-1H-benzo[d]imidazol-5-yl)methyl)amino)methyl)cyclobutan-1-ol], for which the EC50 in assay [1] is less than 200 nM. The IC50 in assay [2] and in assay [3] was less than 200 nM in each case.

Regarding `Cn1cnnc1-c1cc(C#N)ccc1-c1cccc(-c2nc3cc(CO)cc(C(F)(F)F)c3o2)c1` [CL-2, 3′-(5-(Hydroxymethyl)-7-(trifluoromethyl)benzo[d]oxazol-2-yl)-2-(4-methyl-4H-1,2,4-triazol-3-yl)-[1,1′-biphenyl]-4-carbonitrile], the EC50 in assay [1] fell in the range of 1000 to 10000 nM. Also, the IC50 – broadly, the concentration that inhibits the measured activity by half – in assay [2] is less than 200 nM; in assay [3], 200 to 1000 nM.

Consider `Cn1cnnc1-c1cc(F)ccc1-c1cccc(-c2nc3cc(CN[C@@H]4CCC[C@@H]4O)ccc3o2)c1` [CM-1, (1S,2R)-2-(((2-(4′-Fluoro-2′-(4-methyl-4H-1,2,4-triazol-3-yl)-[1,1′-biphenyl]-3-yl)benzo[d]oxazol-5-yl)methyl)amino)cyclopentan-1-ol], for which the EC50 in assay [1] is less than 200 nM. In addition, the IC50 in assay [2] and in assay [3] was less than 200 nM throughout.

In the case of `CO[C@H]1CCC[C@H]1N(C)Cc1cc(C(F)(F)F)c2oc(-c3cccc(-c4ccc(F)cc4-c4nncn4C)c3)nc2c1` [CN-5, (1R,2S)—N-((2-(4′-Fluoro-2′-(4-methyl-4H-1,2,4-triazol-3-yl)-[1,1′-biphenyl]-3-yl)-7-(trifluoromethyl)benzo[d]oxazol-5-yl)methyl)-2-methoxy-N-methylcyclopentan-1-amine], in assay [1], the EC50 was in the range of 200 to 1000 nM. Moreover, the results for the IC50 in assay [2] and in assay [3] were less than 200 nM and 200 to 1000 nM, respectively.

`Cn1cnnc1-c1cc(C#N)ccc1-c1cccc(-c2nc3cc(CN[C@@H]4CCC[C@@H]4O)cc(C(F)(F)F)c3o2)c1` [CP-4, 3′-(5-((((1R,2S)-2-Hydroxycyclopentyl)amino)methyl)-7-(trifluoromethyl)benzo[d]oxazol-2-yl)-2-(4-methyl-4H-1,2,4-triazol-3-yl)-[1,1′-biphenyl]-4-carbonitrile]: in assay [1], the EC50 is less than 200 nM. Moreover, the IC50 in assay [2] and in assay [3] was less than 200 nM throughout.

For the compound `Cn1cnnc1-c1cc(F)ccc1-c1cccc(-c2nc3cc(CNCC4(O)CC(F)(F)C4)cc(C(F)(F)F)c3o2)c1` [CQ-1, 3,3-Difluoro-1-((((2-(4′-fluoro-2′-(4-methyl-4H-1,2,4-triazol-3-yl)-[1,1′-biphenyl]-3-yl)-7-(trifluoromethyl)benzo[d]oxazol-5-yl)methyl)amino)methyl)cyclobutan-1-ol], the EC50 in assay [1] was less than 200 nM. The IC50 in assay [2] and in assay [3] was less than 200 nM throughout.

Take `CCN(CC[C@@H](O)C(F)(F)F)Cc1cc(C(F)(F)F)c2oc(-c3cccc(-c4ccc(F)cc4-c4nncn4C)c3)nc2c1` [CR-2]: the EC50 in assay [1] was in the range of 200 to 1000 nM. For the same compound, the IC50 in assay [2] and in assay [3] was less than 200 nM throughout.

For `Cn1cnnc1-c1cc(F)ccc1-c1cccc(-c2nc3cc(CNC[C@@H](O)C(F)(F)F)cc(C(F)(F)F)c3o2)c1` [CR-3, (R)-1,1,1-trifluoro-3-(((2-(4′-fluoro-2′-(4-methyl-4H-1,2,4-triazol-3-yl)-[1,1′-biphenyl]-3-yl)-7-(trifluoromethyl)benzo[d]oxazol-5-yl)methyl)amino)propan-2-ol], the EC50 in assay [1] is less than 200 nM. Besides, the IC50 in assay [2] and in assay [3] was less than 200 nM each time.

As to `Cn1cnnc1-c1cc(F)ccc1-c1cccc(-c2nc3cc(CNCC4(C#N)CCCC4)cc(C(F)(F)F)c3[nH]2)c1` [CS-1, 1-((((2-(4′-Fluoro-2′-(4-methyl-4H-1,2,4-triazol-3-yl)-[1,1′-biphenyl]-3-yl)-7-(trifluoromethyl)-1H-benzo[d]imidazol-5-yl)methyl)amino)methyl)cyclopentane-1-carbonitrile], the EC50 in assay [1] is 200 to 1000 nM. Further, the IC50 in assay [2] and in assay [3] was less than 200 nM in each case.

Consider `Cn1cnnc1-c1cc(F)ccc1-c1cccc(-c2nc3cc(CNCC4(C#N)CCOCC4)cc(C(F)(F)F)c3[nH]2)c1` [CT-2, 4-((((2-(4′-Fluoro-2′-(4-methyl-4H-1,2,4-triazol-3-yl)-[1,1′-biphenyl]-3-yl)-7-(trifluoromethyl)-1H-benzo[d]imidazol-5-yl)methyl)amino)methyl)tetrahydro-2H-pyran-4-carbonitrile], for which the EC50 in assay [1] is 200 to 1000 nM. Besides, the IC50 is less than 200 nM in assay [2] and 200 to 1000 nM in assay [3].

In the case of `Cn1cnnc1-c1cc(F)ccc1-c1cccc(-c2nc3cc(CNC[C@@H]4CCC(=O)N4)cc(C(F)(F)F)c3o2)c1` [CU-2, (S)-5-((((2-(4′-Fluoro-2′-(4-methyl-4H-1,2,4-triazol-3-yl)-[1,1′-biphenyl]-3-yl)-7-(trifluoromethyl)benzo[d]oxazol-5-yl)methyl)amino)methyl)pyrrolidin-2-one], the EC50 in assay [1] was in the range of 200 to 1000 nM. Further, the IC50 in assay [2] and in assay [3] was less than 200 nM in each case.

With `Cn1cnnc1-c1cc(F)ccc1-c1cccc(-c2nc3cc(CN[C@@H]4CCC[C@@H]4F)cc(C(F)(F)F)c3o2)c1` [CW-5, (1R,2S)-2-Fluoro-N-((2-(4′-fluoro-2′-(4-methyl-4H-1,2,4-triazol-3-yl)-[1,1′-biphenyl]-3-yl)-7-(trifluoromethyl)benzo[d]oxazol-5-yl)methyl)cyclopentan-1-amine], the EC50 in assay [1] was less than 200 nM. For the same compound, the IC50 in assay [2] and in assay [3] was less than 200 nM in each case.

`Cn1cnnc1-c1cc(F)ccc1-c1cccc(-c2nc3cc(CNCC4(C#N)CCCC4)cc(C(F)(F)F)c3o2)c1` [CX-1, 1-((((2-(4′-Fluoro-2′-(4-methyl-4H-1,2,4-triazol-3-yl)-[1,1′-biphenyl]-3-yl)-7-(trifluoromethyl)benzo[d]oxazol-5-yl)methyl)amino)methyl)cyclopentane-1-carbonitrile]: the EC50 in assay [1] lay within 200 to 1000 nM. The IC50 in assay [2] and in assay [3] was less than 200 nM in each case.

Consider `Cn1cnnc1-c1cc(F)ccc1-c1cccc(-c2nc3cc(CN4C(=O)O[C@H]5CCC[C@H]54)cc(C(F)(F)F)c3o2)c1` [CY-1, (3aR,6aS)-3-((2-(4′-Fluoro-2′-(4-methyl-4H-1,2,4-triazol-3-yl)-[1,1′-biphenyl]-3-yl)-7-(trifluoromethyl)benzo[d]oxazol-5-yl)methyl)hexahydro-2H-cyclopenta[d]oxazol-2-one], for which the EC50 in assay [1] lay within 1000 to 10000 nM. Also, the IC50 is less than 200 nM in assay [2] and 200 to 1000 nM in assay [3].

On to `Cn1cnnc1-c1cc(F)ccc1-c1cccc(-c2nc3cc(CNCC(O)(C(F)(F)F)C(F)(F)F)cc(C(F)(F)F)c3o2)c1` [CZ-2, 1,1,1,3,3,3-Hexafluoro-2-((((2-(4′-fluoro-2′-(4-methyl-4H-1,2,4-triazol-3-yl)-[1,1′-biphenyl]-3-yl)-7-(trifluoromethyl)benzo[d]oxazol-5-yl)methyl)amino)methyl)propan-2-ol], for which the EC50 in assay [1] was in the range of 200 to 1000 nM. In addition, the IC50 in assay [2] and in assay [3] was less than 200 nM throughout.

Take `Cn1cnnc1-c1cc(F)ccc1-c1cccc(-c2nc3cc(CNCC(C)(C)F)cc(C(F)(F)F)c3o2)c1` [DA-1, 2-Fluoro-N-((2-(4′-fluoro-2′-(4-methyl-4H-1,2,4-triazol-3-yl)-[1,1′-biphenyl]-3-yl)-7-(trifluoromethyl)benzo[d]oxazol-5-yl)methyl)-2-methylpropan-1-amine]: the EC50 in assay [1] was less than 200 nM. Further, the IC50 in assay [2] and in assay [3] was less than 200 nM in each case.

On to `Cn1cnnc1-c1cc(F)ccc1-c1cccc(-c2nc3ccc(CN[C@@H]4CCC[C@@H]4O)cc3o2)c1` [DD-2, (1S,2R)-2-(((2-(4′-Fluoro-2′-(4-methyl-4H-1,2,4-triazol-3-yl)-[1,1′-biphenyl]-3-yl)benzo[d]oxazol-6-yl)methyl)amino)cyclopentan-1-ol], for which the EC50 in assay [1] lay within 1000 to 10000 nM. The results for the IC50 in assay [2] and in assay [3] were less than 200 nM and 200 to 1000 nM, respectively.

`COC1(CNCc2cc(C(F)(F)F)c3oc(-c4cccc(-c5ccc(F)cc5-c5nncn5C)c4)nc3c2)CCC1` [DE-2, 1-(2-(4′-Fluoro-2′-(4-methyl-4H-1,2,4-triazol-3-yl)-[1,1′-biphenyl]-3-yl)-7-(trifluoromethyl)benzo[d]oxazol-5-yl)-N-((1-methoxycyclobutyl)methyl)methanamine]: the EC50 in assay [1] is 200 to 1000 nM. In addition, the IC50 in assay [2] and in assay [3] was less than 200 nM in each case.

Turning to `Cn1cnnc1-c1cc(F)ccc1-c1cccc(-c2nc3cc(CN[C@@H]4CCCC[C@@H]4O)cc(C(F)(F)F)c3o2)c1` [DF-2, (1S,2R)-2-(((2-(4′-Fluoro-2′-(4-methyl-4H-1,2,4-triazol-3-yl)-[1,1′-biphenyl]-3-yl)-7-(trifluoromethyl)benzo[d]oxazol-5-yl)methyl)amino)cyclohexan-1-ol], the 50% effective concentration (EC50) in assay [1] was less than 200 nM. The IC50 in assay [2] and in assay [3] was less than 200 nM each time.
